{
  "source": "patent US10905676B2",
  "about": "“Angiotensin II receptor antagonist for the prevention or treatment of systemic diseases in cats” (priority 2017, dated 2021)",
  "key": {"[1]": {"system": "cats with systemic hypertension", "assay": "Six-month extended-use study in cats with systemic hypertension (Example 5)", "format": "in vivo", "settings": "for Group mSBP, Mean: baseline 176", "description": "The primary variables for assessment in this extensive use study were adverse events and change from baseline in retinal photographs. […] No placebo group was used in this study. […] The maintenance dose was down-titrated if the mSBP was below the target range of 120-160 mmHg at any visit. In those cases, the dose was reduced to 1 mg/kg and further reduced to 0.5 mg/kg SID if mSBP remained below the target range. […] All parameters were evaluated by the Investigator for clinical significance. The parameters were then compared to baseline, and changes were summarized by treatment group as well as by subpopulation, if appropriate."}, "[2]": {"settings": "human patients, 160 mg daily (80 mg twice daily); cited from earlier work"}, "[3]": {"system": "cats with systemic hypertension", "assay": "U.S. study of safety and effectiveness in cats with systemic hypertension (Example 4)", "format": "in vivo", "description": "Of the remaining 288 cats used for the safety summary, 192 received IVP and 96 received ICP from a total of 33 sites within the United States (US) and Canada. […] Overall, both treatment groups were evenly distributed with regard to demographics and baseline characteristics including age, body weight, mSBP, retinal/fundic changes, and laboratory values. The median age of cats enrolled in this study was 14.2 years. Upon enrollment into the study, cats were orally administered telmisartan by their owners, where the owners were given the option of dosing the treatments around or on the food or via syringe. A dosing syringe was provided with demarcations in 0.1 mL increments as well as a dose and volume to be given, rounded to the nearest 0.1 mL (where the calculation was based on kg of body weight for each cat at Visit 1, and the dose was recalculated at each subsequent visit using the current body weight). […] Following Visit 2 (approximately Day 14), the dose was decreased to the 2 mg/kg once daily (SID) maintenance dose. The reduction and maintenance dosage regimen for the cats in the study is set forth in Table 6: The maintenance dose for a cat in the study could be further down-titrated if the mSBP of the cat remained below 120 mmHg from Visit 2 (at about day 14) and onward. […] At Visit 2 and at Unscheduled Visits, blood and urine samples were collected at the discretion of the Investigator. Changes in all parameters were summarized by treatment group as well as by subpopulation, if appropriate. The primary variable for statistical analysis was mSBP reduction from baseline observed at Visit 2. […] Telmisartan was successful in fulfilling both primary criteria for efficacy in cats as described below."}},
  "data": [
    {"smiles": "CCCc1nc2c(C)cc(-c3nc4ccccc4n3C)cc2n1Cc1ccc(-c2ccccc2C(=O)O)cc1", "note": "[telmisartan, 4′-[2-n-propyl-4-methyl-6-(1-methylbenzimidazol-2-yl)-benzimidazol-1-ylmethyl]-biphenyl-2-carboxylic acid]", "values": [
      {"measurement": "rescue cases (removed due to mSBP >180 mmHg), share of end of study outcomes", "setting": "[1]; 8/107 cats", "value": 7.5, "unit": "%"},
      {"measurement": "SAEs determined to be possibly attributable to telmisartan", "setting": "[1]; 11 SAEs", "value": 10.3, "unit": "%"},
      {"measurement": "cats with Serious AEs (SAEs)", "setting": "[1]; 24 cats of 107, six-month study", "value": 22.4, "unit": "%"},
      {"measurement": "cats with Non-serious AEs (NSAEs)", "setting": "[1]; 91 cats of 107, six-month study", "value": 85.0, "unit": "%"},
      {"measurement": "cases with SBP maintained within the target range (120-180 mmHg)", "setting": "[1]; 97/107 cats", "value": 90.7, "unit": "%"},
      {"measurement": "cats scored as \"better\" in the IRIS blood pressure sub-staging", "setting": "[1]; CKD and CKD and hyperthyroid subpopulations", "value": "83.0% to 98.1"},
      {"measurement": "Mean SBP of Cat 329-454", "setting": "[1]; Visit 2 (Week 2), after 3.0 (1.5 BID) mg/kg daily", "value": 108.3, "unit": "mmHg"},
      {"measurement": "Mean SBP of Cat 329-454", "setting": "[1]; Visit 3 (Week 4), after 1.0 mg/kg SID", "value": 116.0, "unit": "mmHg"},
      {"measurement": "Mean SBP of Cat 329-454", "setting": "[1]; Visit 4 (Week 8), after 0.5 mg/kg SID", "value": 157.7, "unit": "mmHg"},
      {"measurement": "Mean SBP of Cat 329-454", "setting": "[1]; Visit 5 (Week 14), after 2.0 mg/kg SID", "value": 100.0, "unit": "mmHg"},
      {"measurement": "Mean SBP of Cat 329-454", "setting": "[1]; Visit 6 (Week 20), after 1.0 mg/kg SID", "value": 125.3, "unit": "mmHg"},
      {"measurement": "Mean SBP of Cat 329-454", "setting": "[1]; Visit 7 (Week 26), after 2.0 mg/kg SID", "value": 126.0, "unit": "mmHg"},
      {"measurement": "Group mSBP, Median", "setting": "[1]; Week 4 (n = 107)", "value": 149, "unit": "mmHg"},
      {"measurement": "Maximum mSBP", "setting": "[1]; Week 4 (n = 107)", "value": 179, "unit": "mmHg"},
      {"measurement": "Maximum mSBP Change from baseline", "setting": "[1]; Week 4 (n = 107)", "value": "14 ΔmmHg"},
      {"measurement": "Mean mSBP Change from baseline", "setting": "[1]; Week 4 (n = 107)", "value": "−29 ΔmmHg"},
      {"measurement": "Median mSBP Change from baseline", "setting": "[1]; Week 4 (n = 107)", "value": "−26 ΔmmHg"},
      {"measurement": "Minimum mSBP", "setting": "[1]; Week 4 (n = 107)", "value": 95, "unit": "mmHg"},
      {"measurement": "Minimum mSBP Change from baseline", "setting": "[1]; Week 4 (n = 107)", "value": "−76 ΔmmHg"},
      {"measurement": "Group mSBP, Mean", "setting": "[1]; Week 4 (n = 107)", "value": 148, "unit": "mmHg"},
      {"measurement": "Group mSBP, Median", "setting": "[1]; Week 8 (n = 102)", "value": 148, "unit": "mmHg"},
      {"measurement": "Maximum mSBP Change from baseline", "setting": "[1]; Week 8 (n = 102)", "value": "7 ΔmmHg"},
      {"measurement": "Mean mSBP Change from baseline", "setting": "[1]; Week 8 (n = 102)", "value": "−28 ΔmmHg"},
      {"measurement": "Median mSBP Change from baseline", "setting": "[1]; Week 8 (n = 102)", "value": "−28 ΔmmHg"},
      {"measurement": "Minimum mSBP", "setting": "[1]; Week 8 (n = 102)", "value": 105, "unit": "mmHg"},
      {"measurement": "Minimum mSBP Change from baseline", "setting": "[1]; Week 8 (n = 102)", "value": "−79 ΔmmHg"},
      {"measurement": "Group mSBP, Mean", "setting": "[1]; Week 8 (n = 102)", "value": 148, "unit": "mmHg"},
      {"measurement": "Group mSBP, Median", "setting": "[1]; Week 14 (n = 92)", "value": 144, "unit": "mmHg"},
      {"measurement": "Maximum mSBP Change from baseline", "setting": "[1]; Week 14 (n = 92)", "value": "25 ΔmmHg"},
      {"measurement": "Mean mSBP Change from baseline", "setting": "[1]; Week 14 (n = 92)", "value": "−33 ΔmmHg"},
      {"measurement": "Median mSBP Change from baseline", "setting": "[1]; Week 14 (n = 92)", "value": "−32 ΔmmHg"},
      {"measurement": "Minimum mSBP", "setting": "[1]; Week 14 (n = 92)", "value": 77, "unit": "mmHg"},
      {"measurement": "Minimum mSBP Change from baseline", "setting": "[1]; Week 14 (n = 92)", "value": "−115 ΔmmHg"},
      {"measurement": "Group mSBP, Mean", "setting": "[1]; Week 14 (n = 92)", "value": 142, "unit": "mmHg"},
      {"measurement": "Group mSBP, Median", "setting": "[1]; Week 20 (n = 81)", "value": 148, "unit": "mmHg"},
      {"measurement": "Maximum mSBP Change from baseline", "setting": "[1]; Week 20 (n = 81)", "value": "16 ΔmmHg"},
      {"measurement": "Mean mSBP Change from baseline", "setting": "[1]; Week 20 (n = 81)", "value": "−30 ΔmmHg"},
      {"measurement": "Median mSBP Change from baseline", "setting": "[1]; Week 20 (n = 81)", "value": "−28 ΔmmHg"},
      {"measurement": "Minimum mSBP", "setting": "[1]; Week 20 (n = 81)", "value": 89, "unit": "mmHg"},
      {"measurement": "Minimum mSBP Change from baseline", "setting": "[1]; Week 20 (n = 81)", "value": "−91 ΔmmHg"},
      {"measurement": "Group mSBP, Mean", "setting": "[1]; Week 20 (n = 81)", "value": 145, "unit": "mmHg"},
      {"measurement": "Group mSBP, Median", "setting": "[1]; Week 26 (n = 73)", "value": 147, "unit": "mmHg"},
      {"measurement": "Maximum mSBP Change from baseline", "setting": "[1]; Week 26 (n = 73)", "value": "30 ΔmmHg"},
      {"measurement": "Mean mSBP Change from baseline", "setting": "[1]; Week 26 (n = 73)", "value": "−25 ΔmmHg"},
      {"measurement": "Median mSBP Change from baseline", "setting": "[1]; Week 26 (n = 73)", "value": "−28 ΔmmHg"},
      {"measurement": "Minimum mSBP", "setting": "[1]; Week 26 (n = 73)", "value": 104, "unit": "mmHg"},
      {"measurement": "Minimum mSBP Change from baseline", "setting": "[1]; Week 26 (n = 73)", "value": "−69 ΔmmHg"},
      {"measurement": "Group mSBP, Mean", "setting": "[1]; Week 26 (n = 73)", "value": 150, "unit": "mmHg"},
      {"measurement": "cats with retinal photographs improved compared to baseline", "setting": "[1]; at all subsequent visits", "value": "6.9% to 7.4"},
      {"measurement": "mean change in SBP from baseline (reduction)", "setting": "[1]; each visit, Examples 4 and 5, FIG. 2", "value": "greater than 20 mmHg"},
      {"measurement": "SAE anemia and dehydration", "setting": "[1]; six-month study", "value": 6.5, "unit": "%"},
      {"measurement": "SAE anorexia, vomiting", "setting": "[1]; six-month study", "value": 5.6, "unit": "%"},
      {"measurement": "SAE weight loss", "setting": "[1]; six-month study", "value": 8.4, "unit": "%"},
      {"measurement": "cases rescued due to hypotension", "setting": "[1]; two cats", "value": 1.9, "unit": "%"},
      {"measurement": "plasma level (Cmax±SD)", "setting": "[2]", "value": "about 2800±2400 ng/ml"},
      {"measurement": "LSM mSBP change from baseline to Visit 2", "setting": "[3]; 1.5 mg/kg BID oral, about Day 14, N 141", "value": "−23.3 ΔmmHg"},
      {"measurement": "arithmetic mean decrease of mSBP, baseline minus Visit 3", "setting": "[3]; Visit 3 (about Day 28), 1.5 mg/kg BID then 2 mg/kg SID", "value": 23.9, "unit": "mmHg"},
      {"measurement": "mean decrease of mSBP", "setting": "[3]; baseline to Visit 2 (about Day 14)", "value": 23.3, "unit": "mmHg"},
      {"measurement": "Serious Adverse Events (SAEs) attributable", "setting": "[3]; hypertensive cats, 28 days", "value": "very few"},
      {"measurement": "percentage of cats with retinal lesions scoring \"better\"", "setting": "[3]; retinal photographs vs baseline", "value": 11.5, "unit": "%"}
    ]}
  ]
}
